This is an account of results in patent publication US5985937A, “Use of 2,4-distributed phenol derivatives as 5-lipoxygenase inhibitors” (priority 1994, dated 1999).

The test system of one data set is herpes zoster. The data set is described as follows: in vivo activity in patients with herpes zoster. The arrangement: species or system human (patients). As to conditions: of 21 patients; 15 mg/day intramuscular injection, a month. The text has this: The 2,4-disubstituted phenol derivatives of the present invention are anti-herpetic agents in vivo, since they eliminate the symptoms of patients suffering from different types of herpes simplex (genital herpes, herpes of mouth and lips, recurrent herpes), and of patients suffering from herpes zoster. There is no relapse after leaving the treatment. The products are active both intramuscularly and topically, the first via being preferred.
A total of 21 patients with clear symptoms of herpes zoster were treated with 15 mg/day of Bobel-24, via intramuscular injection, during a month. The results concerning the disappearance of the symptoms were the following: excellent in 18 cases, good in 2 cases, and regular in 1 case.

Data set [1] has as its system canine seborrheic dermatitis. The data set is described as follows: clinical trial on canine seborrheic dermatitis. The data set is classed as in vivo, dog. The arrangement: key: +++: very good response, total recovery; ++: good response, functionability recovery; +: moderate response, improvement; -: negative response or no apparent improvement. As to conditions: weekly bath 2% shampoo, 15 days. How it is done:
The animals had been diagnosed to suffer from seborrheic dermatitis, and the diagnosis was confirmed by a biopsy. The treatment consisted of a weekly bath with a 2% Bobel-24 shampoo and evaluation of the treatment after 15 days. The efficiency of the treatment was analyzed evaluating the following therapeutic symptoms; removal of scabs and scales, greasiness reduction, sheborrheic odor reduction, relieve of the pruritus, and antiinflammatory effect. […] In view of the results the following conclusions were reached: […]

Data set [2] can be described thus: acute toxicity in Sprague-Dawley rats. The note with it: rat, in vivo, po.
The subject of data set [3] is chronic intestinal pathology, chronic lymphoplasmocitary enteritis and hemorrhagic cholitis. The data set is described as follows: treatment of dogs with gastrointestinal diseases. The data set is classed as in vivo, dog. The note with it: ten dogs, 1-2 mg/kg.day. How it is done:
A total of ten dogs diagnosed chronic intestinal pathology, chronic lymphoplasmocitary enteritis (diagnosed through a biopsy and more than a year of evolution) and hemorrhagic cholitis, were treated with doses of 1-2 mg/kg.day of Bobel-24.

On to `Oc1c(I)cc(I)cc1I` [Bobel-24, 2,4,6-triiodophenol], for which, in the data set on herpes zoster, the “cases with excellent result, herpes zoster” value is recorded as 18 cases; the “cases with good result, herpes zoster” value is recorded as 2 cases; the “cases with regular result, herpes zoster” value was 1 cases. Further, the “Evolution, etiology allergic” value in data set [1] (b363 Poodle 6, b364 Mongrel 14, b374 Mongrel 10, b376 Belgian shepherd 10, b382 Poodle 9, b392 Mongrel 5 years) was “+”. Besides, in data set [1] (b369 German shepherd 10, b377 Pekinese 11, b379 German shepherd 3 years), the “Evolution, etiology leishmania” value is listed as “+”. Moreover, the 50% lethal dose (LD50) (commonly the dose at which mortality reaches 50%) in data set [2] was 1500 mg/kg. In data set [3], the response entry is “responded very positively in a short time (1-2 weeks)”.
